Measurements taken from the Kinase Knowledgebase extract (Sharma et al. 2016).

Biological target: PIK3CA (human) (UniProt P42336)
Test: Inhibition of PIK3CA Kinase Activity

PIK3CA (human), sequence (P42336 whole entry, looked up): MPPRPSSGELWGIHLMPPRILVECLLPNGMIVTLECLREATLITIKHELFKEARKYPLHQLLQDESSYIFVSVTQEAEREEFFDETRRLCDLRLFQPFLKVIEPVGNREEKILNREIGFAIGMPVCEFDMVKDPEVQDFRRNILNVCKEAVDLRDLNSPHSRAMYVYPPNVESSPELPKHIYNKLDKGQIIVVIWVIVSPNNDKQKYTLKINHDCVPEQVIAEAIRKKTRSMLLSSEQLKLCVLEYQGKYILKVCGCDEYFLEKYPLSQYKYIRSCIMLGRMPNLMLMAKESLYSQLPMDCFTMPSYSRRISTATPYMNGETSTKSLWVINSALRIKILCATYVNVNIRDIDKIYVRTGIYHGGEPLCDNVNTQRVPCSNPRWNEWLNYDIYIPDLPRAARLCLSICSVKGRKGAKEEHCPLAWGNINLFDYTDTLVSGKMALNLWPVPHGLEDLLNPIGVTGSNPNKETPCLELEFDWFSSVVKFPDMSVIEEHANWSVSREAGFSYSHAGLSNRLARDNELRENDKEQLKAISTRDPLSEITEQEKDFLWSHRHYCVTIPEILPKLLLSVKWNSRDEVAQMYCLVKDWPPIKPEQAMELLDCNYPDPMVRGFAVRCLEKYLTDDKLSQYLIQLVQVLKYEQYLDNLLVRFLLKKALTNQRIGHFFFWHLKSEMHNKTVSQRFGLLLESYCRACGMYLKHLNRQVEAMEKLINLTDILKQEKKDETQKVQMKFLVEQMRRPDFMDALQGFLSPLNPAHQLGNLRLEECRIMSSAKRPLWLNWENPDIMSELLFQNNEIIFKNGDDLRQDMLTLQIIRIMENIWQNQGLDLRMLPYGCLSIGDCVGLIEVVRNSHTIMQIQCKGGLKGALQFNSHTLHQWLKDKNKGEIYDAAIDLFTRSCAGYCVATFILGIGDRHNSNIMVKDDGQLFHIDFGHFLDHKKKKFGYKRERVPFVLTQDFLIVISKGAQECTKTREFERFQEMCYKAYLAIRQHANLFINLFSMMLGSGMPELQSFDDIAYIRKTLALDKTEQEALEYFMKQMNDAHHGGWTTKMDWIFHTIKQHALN

IC50	Compound
0.01 to 0.05 µM	CC1(C)C=Cc2ncnc(N3CCOc4ccc(-c5cnc(N)c(S(=O)(=O)N6CC[C@@H](N)C6)c5)cc4C3)c2C1
0.01 to 0.05 µM	Cc1nc2ccc(-c3ccc4c(c3)CN(c3ncnc5c3CCC(C)C5)CCO4)cc2[nH]1 (configuration not stated)
0.05 to 0.25 µM	CNC(=O)Nc1ccc(-c2ccc3c(c2)CN(c2nc(C)nc4cc(OC)ccc24)CCO3)cc1
0.05 to 0.25 µM	Cc1ncnc(N2CCOc3ccc(-c4ccc(C(=O)NCC(F)F)cc4)cc3C2)c1Cc1ccc(F)cc1
0.05 to 0.25 µM	CCc1ncnc(N2CCOc3ccc(-c4ccc5nc(C)[nH]c5c4)cc3C2)c1CC
0.05 to 0.25 µM	Cc1nc2ncc(-c3ccc4c(c3)CN(c3ncnc(N5CCOCC5)c3C)CCO4)cc2[nH]1
0.05 to 0.25 µM	COc1c(Cl)cc2c(N3CCOc4ccc(-c5ccc6nc(C)[nH]c6c5)cc4C3)ncnc2c1OC
0.01 to 0.05 µM	CCN(CC)Cc1nc(C)c(C(C)C)c(N2CCOc3ccc(-c4ccc5nc(C)[nH]c5c4)cc3C2)n1
0.01 to 0.05 µM	Cc1nc2ncc(-c3ccc4c(c3)CN(c3nc(CNC(C)C5CC5)nc5c3CC(C)(C)CC5)CCO4)cc2[nH]1 (configuration not stated)
0.05 to 0.25 µM	Cc1ncnc(N2CCOc3ccc(-c4cnc(N)nc4)cc3C2)c1Cc1ccc(F)cc1
0.25 to 1 µM	c1cc(N2CCOc3ccc(-c4cnc5nc[nH]c5c4)cc3C2)ncn1
0.01 to 0.05 µM	CC1(C)CCc2ncnc(N3CCOc4ccc(-c5cnc(N)c(S(=O)(=O)NCC(N)=O)c5)cc4C3)c2C1
0.05 to 0.25 µM	Cc1nc2ccc(-c3ccc4c(c3)CN(c3ncnc(C)c3Cc3cccc(C(F)(F)F)c3)CCO4)cc2[nH]1
0.05 to 0.25 µM	Cc1nc2ccc(-c3ccc4c(c3)CN(c3ncnc5c(Br)cccc35)CCO4)cc2[nH]1
≤ 0.01 µM	CCNc1nc2ccc(-c3ccc4c(c3)CN(c3cc(C)nc5cc(F)ccc35)CCO4)cc2[nH]1
0.01 to 0.05 µM	CC[C@H]1CCc2c(ncnc2N2CCOc3ccc(-c4cnc(N)c(S(=O)(=O)N5CCC(C)(N)C5)c4)cc3C2)C1 (some centres not stated)
0.01 to 0.05 µM	COc1cccc2c(N3CCOc4ccc(-c5ccc6nc(C)[nH]c6c5)cc4C3)ncnc12
0.01 to 0.05 µM	CCNc1nc2ccc(-c3ccc4c(c3)CN(c3nc(C)nc5cc(OC)c(OC)cc35)CCO4)cc2[nH]1
≤ 0.01 µM	Cc1nc2cc(-c3ccc4c(c3)CN(c3nc(CN(C)C)nc(C)c3C(C)C)CCO4)cnc2[nH]1
0.01 to 0.05 µM	CC1(C)CCc2ncnc(N3CCOc4ccc(-c5cnc(N)c(S(=O)(=O)CCCO)c5)cc4C3)c2C1
≤ 0.01 µM	COc1ccc2c(N3CCOc4ccc(-c5cnc6nc(C)[nH]c6c5)cc4C3)ncnc2c1
0.01 to 0.05 µM	Cc1nc2ncc(-c3ccc4c(c3)CN(c3nc(CNCC(F)F)nc5c3CC(C)(C)CC5)CCO4)cc2[nH]1

IC50	Compound
≤ 0.01 µM	CCCc1c(C)nc(CN(C)C)nc1N1CCOc2ccc(-c3cnc4sc(N)nc4c3)cc2C1
0.05 to 0.25 µM	CC1(C)CCc2ncnc(N3CCOc4ccc(-c5cnc(N)c(NS(C)(=O)=O)c5)cc4C3)c2C1
≤ 0.01 µM	Cc1nc2cc(-c3ccc4c(c3)CN(c3nc(CN5CCCC5)nc5c3CC(C)(C)CC5)CCO4)ccc2[nH]1
0.25 to 1 µM	COC(=O)Nc1nc2ccc(-c3ccc4c(c3)CN(c3ccncn3)CCO4)cc2[nH]1
0.01 to 0.05 µM	CN1CCC(CNS(=O)(=O)c2cc(-c3ccc4c(c3)CN(c3ncnc5c3CC(C)(C)CC5)CCO4)cnc2N)CC1
≤ 0.01 µM	CCNc1nc2ccc(-c3ccc4c(c3)CN(c3nc(C)nc5cc(F)ccc35)CCO4)cc2[nH]1
0.05 to 0.25 µM	CCc1ncnc(N2CCOc3ccc(-c4cnc5nc(C)[nH]c5c4)cc3C2)c1C
0.01 to 0.05 µM	Cc1nc2ccc(-c3ccc4c(c3)CN(c3ncnc(C)c3Cc3cc(F)cc(F)c3)CCO4)cc2[nH]1
0.01 to 0.05 µM	CC1(C)CCc2ncnc(N3CCOc4ccc(-c5cnc(N)c(S(=O)(=O)NC[C@@H]6CCNC6)c5)cc4C3)c2C1
0.01 to 0.05 µM	CCc1nc(CN(C)C)nc(N2CCOc3ccc(-c4ccc5[nH]c(C)nc5c4)cc3C2)c1C
≤ 0.01 µM	Cc1nc2cc(-c3ccc4c(c3)CN(c3nc(N)nc(C)c3Cc3ccc(F)cc3)CCO4)ccc2[nH]1
0.05 to 0.25 µM	CCc1c(C)nc(C)nc1N1CCOc2ccc(-c3cnc4nc(C)[nH]c4c3)cc2C1
0.01 to 0.05 µM	Cc1ccc2c(N3CCOc4ccc(-c5ccc6nc(C)[nH]c6c5)cc4C3)ncnc2c1
0.01 to 0.05 µM	COc1ccc2c(N3CCOc4ccc(-c5ccc(OC)c(OC)c5)cc4C3)nc(CN(C)C)nc2c1
0.05 to 0.25 µM	CCOc1ncc(-c2ccc3c(c2)CN(c2ncnc4c2CC(C)(C)CC4)CCO3)cc1NS(C)(=O)=O
0.01 to 0.05 µM	CC1(C)CCc2ncnc(N3CCOc4ccc(-c5cnc(N)c(S(=O)(=O)N6CC(O)(CO)C6)c5)cc4C3)c2C1
0.25 to 1 µM	COc1ccc(-c2ccc3c(c2)CN(c2nc(CN(C)C)nc4c2CC(C)(C)CC4)CCO3)cc1C(C)=O
0.01 to 0.05 µM	Cc1nc2ccc(-c3ccc4c(c3)CN(c3nc(CN(C)C)nc(C)c3CC3CC3)CCO4)cc2[nH]1
0.25 to 1 µM	COc1cc2c(N3CCOc4ccc(-c5ccc6nc(C)[nH]c6c5)cc4C3)ncnc2cc1OCc1ccccc1
0.05 to 0.25 µM	C=Cc1nc2c(c(N3CCOc4ccc(-c5cnc6[nH]c(C)nc6c5)cc4C3)n1)CC(C)(C)CC2
0.25 to 1 µM	CC1(C)CCc2ncnc(N3CCOc4ccc(-c5ccc(Cl)c(NS(C)(=O)=O)c5)cc4C3)c2C1
0.05 to 0.25 µM	CCOc1ccc2ncnc(N3CCOc4ccc(-c5ccc6nc(C)[nH]c6c5)cc4C3)c2c1

IC50	Compound
0.05 to 0.25 µM	Cc1ncnc(N2CCOc3ccc(-c4ccc5[nH]nc(N)c5c4)cc3C2)c1Cc1ccc(F)cc1
0.05 to 0.25 µM	CC1(C)CCc2ncnc(N3CCOc4ccc(-c5cnc(N)c(S(=O)(=O)N6CCNCC6)c5)cc4C3)c2C1
≤ 0.01 µM	Cc1nc2ncc(-c3ccc4c(c3)CN(c3nc(CN(C)C(C)C)nc5c3CC(C)(C)CC5)CCO4)cc2[nH]1
0.05 to 0.25 µM	Cc1nc2ncc(-c3ccc4c(c3)CN(c3nc(CN5CCC(F)(F)C5)nc5c3CC(C)(C)CC5)CCO4)cc2[nH]1
0.05 to 0.25 µM	CCOC(=O)c1nc(N2CCOc3ccc(-c4ccc5nc(C)[nH]c5c4)cc3C2)c2ccccc2n1
0.05 to 0.25 µM	Cc1nc(Nc2ccccc2)c(C)c(N2CCOc3ccc(-c4ccc5nc[nH]c5c4)cc3C2)n1
0.01 to 0.05 µM	CCC1CCc2ncnc(N3CCOc4ccc(-c5ccc6nc(C)[nH]c6c5)cc4C3)c2C1 (configuration not stated)
≤ 0.01 µM	CC1(C)CCc2ncnc(N3CCOc4ccc(-c5cnc6nc(N)[nH]c6c5)cc4C3)c2C1
0.01 to 0.05 µM	Cc1nc2ccc(-c3ccc4c(c3)CN(c3nc(CO)nc(C)c3C(C)C)CCO4)cc2[nH]1
0.25 to 1 µM	Cc1nc2ccc(-c3ccc4c(c3)CN(c3ncnc5sccc35)CCO4)cc2[nH]1
0.01 to 0.05 µM	Cc1nc2ccc(-c3ccc4c(c3)CN(c3ccnc(C)c3Cc3ccc(F)cc3)CCO4)cc2[nH]1
0.25 to 1 µM	COc1ccc2c(N3CCOc4ccc(-c5ccc6c(c5)CC(=O)N6)cc4C3)nc(C)nc2c1
0.01 to 0.05 µM	CC1(C)CCc2ncnc(N3CCOc4ccc(-c5cnc6sc(N)nc6c5)cc4C3)c2C1
0.01 to 0.05 µM	Cc1nc2ccc(-c3ccc4c(c3)CN(c3nc(CNC5CC5)nc5c3CC(C)(C)CC5)CCO4)cc2[nH]1
0.01 to 0.05 µM	CC1(C)CCc2ncnc(N3CCOc4ccc(-c5cnc(N)c(S(=O)(=O)N6CC(N)C6)c5)cc4C3)c2C1
0.05 to 0.25 µM	Cc1nc2c(C)cc(-c3ccc4c(c3)CN(c3ncnc5cccnc35)CCO4)cc2[nH]1
0.25 to 1 µM	Cc1nc(CN(C)C)nc(N2CCOc3ccc(-c4ccc5scnc5c4)cc3C2)c1Cc1ccc(F)cc1
0.01 to 0.05 µM	C[C@H]1CCc2c(ncnc2N2CCOc3ccc(-c4cnc5nc(C6CC6)[nH]c5c4)cc3C2)C1
≤ 0.01 µM	CCNc1nc2ccc(-c3ccc4c(c3)CN(c3ccnc5c(F)cccc35)CCO4)cc2[nH]1
0.01 to 0.05 µM	COC(=O)Nc1nc2ccc(-c3ccc4c(c3)CN(c3ncnc5cc(OC)c(OC)cc35)CCO4)cc2[nH]1
0.01 to 0.05 µM	Cc1nc(CN(C)C)nc(N2CCOc3ccc(-c4cnc5sc(N)nc5c4)cc3C2)c1-c1ccccc1
0.25 to 1 µM	COC(=O)Nc1nc2ccc(-c3ccc4c(c3)CN(c3ccnc5ccccc35)CCO4)cc2n1C

IC50	Compound
0.05 to 0.25 µM	CCNc1nc2ccc(-c3ccc4c(c3)CN(c3nc(NC)nc5ccccc35)CCO4)cc2[nH]1
≤ 0.01 µM	COc1ccc2c(N3CCOc4ccc(-c5ccc6nc(C)[nH]c6c5)cc4C3)ncnc2c1
0.25 to 1 µM	COc1ccc2c(N3CCOc4ccc(-c5ccc(NC(C)=O)cc5)cc4C3)nc(C)nc2c1
0.01 to 0.05 µM	CCc1nc2ncc(-c3ccc4c(c3)CN(c3nc(C)nc5c3CC(C)(C)CC5)CCO4)cc2[nH]1
0.01 to 0.05 µM	COc1cc2nccc(N3CCOc4ccc(-c5ccc6nc(N)[nH]c6c5)cc4C3)c2cc1OC
0.01 to 0.05 µM	CC1(C)CCc2nc(CC#N)nc(N3CCOc4ccc(-c5cnc6sc(N)nc6c5)cc4C3)c2C1
≤ 0.01 µM	CC1(C)CCc2nc(CO)nc(N3CCOc4ccc(-c5cnc6sc(N)nc6c5)cc4C3)c2C1
0.01 to 0.05 µM	CC1(C)CCc2ncnc(N3CCOc4ccc(-c5ccc6nc(NCCF)[nH]c6c5)cc4C3)c2C1
0.05 to 0.25 µM	CC(=O)OCc1nc(C)c(C(C)C)c(N2CCOc3ccc(-c4ccc5nc(C)[nH]c5c4)cc3C2)n1
≤ 0.01 µM	COC(=O)Nc1nc2ncc(-c3ccc4c(c3)CN(c3nc(CN(C)C)nc5c3CC(C)(C)CC5)CCO4)cc2[nH]1
0.05 to 0.25 µM	Cc1ncnc(N2CCOc3ccc(-c4cc5[nH]c(N)nc5cn4)cc3C2)c1Cc1ccc(F)cc1
≤ 0.01 µM	CN(C)Cc1nc2c(c(N3CCOc4ccc(-c5ccc6[nH]c(CF)nc6c5)cc4C3)n1)CC(C)(C)CC2
0.05 to 0.25 µM	COc1ccc2ncnc(N3CCOc4ccc(-c5ccc6nc(C)[nH]c6c5)cc4C3)c2c1
0.05 to 0.25 µM	CC1(C)CCc2ncnc(N3CCOc4ccc(-c5cnc(N)c(S(=O)(=O)N6C[C@H]7C[C@@H]6CN7)c5)cc4C3)c2C1
≤ 0.01 µM	COc1ccc2c(N3CCOc4ccc(-c5cnc6nc(N)[nH]c6c5)cc4C3)nc(C)nc2c1
≤ 0.01 µM	Cc1ncnc(N2CCOc3ccc(-c4cnc5sc(N)nc5c4)cc3C2)c1Cc1ccc(F)cc1
≤ 0.01 µM	COc1ccc2c(N3CCOc4ccc(-c5cnc(N)c(S(=O)(=O)N6CC[C@H](N)C6)c5)cc4C3)ncnc2c1
0.05 to 0.25 µM	CC1(C)CCc2ncnc(N3CCOc4ccc(-c5cnc(N)c(S(=O)(=O)NC[C@@H]6CCCN6)c5)cc4C3)c2C1
0.01 to 0.05 µM	CC1(C)CCc2ncnc(N3CCOc4ccc(-c5cnc6[nH]c(CF)nc6c5)cc4C3)c2C1
0.01 to 0.05 µM	Cc1nc2cc(-c3ccc4c(c3)CN(c3nc([C@H]5CCCN5)nc5c3CC(C)(C)CC5)CCO4)ccc2[nH]1
≤ 0.01 µM	Cc1nc2ccc(-c3ccc4c(c3)CN(c3ccnc(C)c3Cc3cccc(F)c3)CCO4)cc2[nH]1
